According to patent publication US8604161B2 (priority 2002, dated 2013):

Legend:
[1] = target: haPrPc and haPrPsc (Mesocricetus auratus, UniProt P04273); conditions: 3-mer library, hamster brain homogenates
[2] = target: PrPres (Mesocricetus auratus, UniProt P04273); conditions: for PrPres bound to resin in five 10 ml columns in series / removal of PrPres: 300 ml RBCC spiked with 0.1% scrapie hamster brain homogenate, Western blot of bead eluates; for Resin needed to remove all PrPres to the limit of detection of the Western blot: 300 ml spiked RBCC, 3 columns of 10 ml
PrPres, sequence (P04273 23-231 limits assumed): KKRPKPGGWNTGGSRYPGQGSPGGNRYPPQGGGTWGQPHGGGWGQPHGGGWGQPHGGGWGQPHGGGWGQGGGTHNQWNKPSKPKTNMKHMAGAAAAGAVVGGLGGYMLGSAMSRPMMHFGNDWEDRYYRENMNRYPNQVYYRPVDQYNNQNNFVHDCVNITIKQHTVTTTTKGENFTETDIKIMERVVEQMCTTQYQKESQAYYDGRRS

[3] = target: PrPc (Mesocricetus auratus, UniProt P04273); conditions: 1% normal hamster brain homogenate, 0.5 ml column
PrPc, sequence (P04273 23-231 limits assumed): as above

haPrPc and haPrPsc, sequence (P04273 23-231 limits assumed): as above

| Substance | Preferential binding of PrPsc over PrPc [1] | PrPres bound to resin in five 10 ml columns in series / removal of PrPres [2] | Resin needed to remove all PrPres to the limit of detection of the Western blot [2] | Location of bound PrPc on chopped resin beads [3] |
| --- | --- | --- | --- | --- |
| VQR [SEQ ID NO:111] | bind preferentially PrPsc over PrPc |  |  |  |
| (D)ES(na)PRQ-EACA [SEQ ID NO:226] |  | decreasing amounts of PrPres on columns 1 through 3 |  |  |
| SYA [SEQ ID NO:108] |  | remove all of the PrPres to the limit of detection of the Western blot in 3 columns | 30 mL |  |
| YVHEA [SEQ ID NO:63] |  | decreasing amounts of PrPres on columns 1 through 3 |  |  |
| DVR [SEQ ID NO:114] | bind preferentially PrPsc over PrPc | remove all of the PrPres to the limit of detection of the Western blot in 3 columns | 30 mL | protein bound to the exterior of the beads |
| WFVEA [SEQ ID NO:225] |  | does not bind and remove all of the prion protein to the limit of detection |  |  |
